Results as given in patent US20240315992A1, “AMINOXY ACID-BASED ANTIBACTERIAL COMPOUNDS AND METHODS THEREOF” (The University of Hong Kong, priority 2023, published 2024).

Tested on: Staphylococcus aureus ATCC29213 Δatl, ΔSAOUHSC_02855 and ΔSAOUHSC_01895
Experiment: Bactericidal activity in autolysin deletion mutants
Format: cell-based
Conditions: 4×MIC (12.5 μM), 24 hours, compared to wild type
Procedure: FIG. 15 is the bar graph showing the reduction of bactericidal effect of compound 8 in autolysin deletion mutants of Staphylococcus aureus. Staphylococcus aureus ATCC29213 WT, Staphylococcus aureus ATCC 29213, Δatl, ΔSAOUHSC_02855 and ΔSAOUHSC_01895 was incubated with 4×MIC compounds 8 for 24 hours. 10 μL bacteria were serial diluted and spotted on Mueller Hinton Agar. Colonies were enumerated next day. Data represented the mean±S.D. of biological triplicates. Statistical analysis was performed by unpaired t test compared to wild type in 95% confidence interval (*p<0.05; **p<0.01).
Target DNA upstream 1 kb and downstream 1 kb were PCR amplified from Staphylococcus aureus genomic DNA. The two DNA inserts were ligated to fuse upstream and downstream DNA fragments by overlap PCR. The ligated PCR product was cloned to pKOR1 plasmid using Vazyme ClonExpress®II One Step Cloning Kit, and transformed into Escherichia. coli top 10, plated on LBA containing ampicillin (100 μg/mL), and incubated under 30° C. overnight. Colony PCR was performed with Sanger sequencing for selection of transformants. The plasmid DNA was extracted and subsequently transformed into Staphylococcus aureus RN4220 and ATCC 29213 in TSA containing chloramphenicol (10 μg/mL). […]

With CC(C)C[C@H](ONC(=O)[C@@H](COCc1ccccc1)ONC(=O)c1cc(C(F)(F)F)cc(C(F)(F)F)c1)C(=O)Nc1ccccc1 [Compound 8] the “bactericidal activity in autolysin deficient Staphylococcus aureus” value was “diminished bactericidal activity”.
